From a compilation of properties of binary mixtures (doi:10.1039/b819795b)

Test: xn = mol fraction of the nth substance listed
Conditions: 101 kPa

CCCCCCCC[n+]1ccn(C)c1.F[P-](F)(F)(F)(F)F + CCCCCC
speed of sound [m/s]
Conditions | x2 = 0 | x2 = 0.0468 | x2 = 0.0712 | x2 = 0.0893 | x2 = 0.1268
293.15 K | 1424 | 1408 | 1401 | 1394 | –
298.15 K | 1408 | 1393 | 1385 | – | 1364
303.15 K | 1393 | 1378 | – | 1364 | 1349

CCCCCCCC[n+]1ccn(C)c1.F[P-](F)(F)(F)(F)F + CCCCCCC
speed of sound [m/s]
Conditions | x2 = 0 | x2 = 0.0074 | x2 = 0.0516 | x2 = 0.0803
293.15 K | 1424 | 1421 | 1406 | –
298.15 K | 1408 | – | 1391 | 1381
303.15 K | – | 1391 | – | 1366

CCCCCCCC[n+]1ccn(C)c1.F[P-](F)(F)(F)(F)F + CC(C)O
speed of sound [m/s]
Conditions | 293.15 K | 298.15 K | 303.15 K
x1 = 0.0004 | 1156 | 1140 | 1121
x1 = 0.0009 | 1157 | 1140 | 1122
x1 = 0.0014 | 1157 | – | 1122
x1 = 0.0024 | 1158 | 1141 | 1123
x1 = 0.003 | 1158 | 1141 | 1123
x1 = 0.0053 | – | 1142 | 1125
x1 = 0.0098 | – | – | 1128
x2 = 0 | 1424 | 1408 | 1393
x2 = 0.0069 | – | 1407 | 1393
x2 = 0.0965 | 1412 | 1397 | 1384
x2 = 0.2012 | 1395 | 1382 | 1368
x2 = 0.304 | 1379 | 1366 | –
x2 = 0.4009 | 1364 | 1351 | 1339
x2 = 0.4943 | 1340 | – | –
x2 = 0.5989 | 1310 | 1296 | –
x2 = 0.6487 | – | 1279 | 1267
x2 = 0.6964 | – | 1261 | 1252
x2 = 0.7469 | – | – | 1235

CCCCCC + CCCCCCCC[n+]1ccn(C)c1.F[P-](F)(F)(F)(F)F
x1 = 1
Conditions | speed of sound [m/s]
293.15 K | 1100
298.15 K | 1078

CC(C)O + CCCCCCCC[n+]1ccn(C)c1.F[P-](F)(F)(F)(F)F
Conditions | speed of sound [m/s]
293.15 K, x1 = 1 | 1156

CCCCCCC + CCCCCCCC[n+]1ccn(C)c1.F[P-](F)(F)(F)(F)F
x1 = 1
Conditions | speed of sound [m/s]
293.15 K | 1153
298.15 K | 1131
303.15 K | 1110
